The values below are quoted from earlier work in patent publication US9206100B2, “Route to synthetic analogues of Rocaglamide and Aglafoline using cascade transformations initiated by oxy-cope rearrangement of bis-alkynes” (The Florida State University Research Foundation, Inc., priority 2010, dated 2015).

For this series, the system named is various human leukemia cell lines. As to conditions: through the intrinsic death pathway; human leukemia cell lines and ALL, CML and AML cells freshly isolated from patients.

Turning to `COc1ccc([C@@]23Oc4cc(OC)cc(OC)c4[C@]2(O)[C@H](O)[C@H](C(=O)N(C)C)[C@H]3c2ccccc2)cc1` [Rocaglamide], the apoptosis induction result is recorded as “induces apoptosis”.
